{"source": "PubChem BioAssay AID1963969", "about": "(Molecular Pharmacology Branch, DTP, NCI, 2024)", "test_system": "817829-284-R-J1-PDC multi-cell spheroid viability", "experiment": "Anticancer human tumor 817829-284-R-J1-PDC patient-derived colon adenocarcinoma cell line growth inhibition [PI3K]", "conditions": "for pIC50: curve of first compound; for viability, T/C: stronger effect = lower value", "method_in_brief": "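Tumor cells were combined with HUVEC and MSCs into spheroids, then dosed with PI3K-inhibitor combinations over half-log ranges capped near clinical Cmax or 10 microM.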", "note": "pIC50: −log10 of the molar value.", "data": [{"compound": "C[C@@H](NC(=O)c1ncnc(N)c1Cl)c1ncc(C(=O)Nc2cc(C(F)(F)F)c(Cl)cn2)s1", "note": "+ COc1c(OCCCN2CCOCC2)ccc2c3n(c(=NC(=O)c4cnc(N)nc4)nc12)CCN3;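 also: spheroids exposed to agents for seven days before readout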;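 as to viability, T/C: percent of vehicle DMSO control viability which is 100%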", "values": [{"measurement": "pIC50", "setting": "second compound 0.00316 µM", "result": 5.00}, {"measurement": "pIC50", "setting": "second compound 0.01 µM", "result": "< 5.00"}, {"measurement": "pIC50", "setting": "second compound 0.0316 µM", "result": "< 5.00"}, {"measurement": "pIC50", "setting": "second compound 0.1 µM", "result": "> 7.50"}, {"measurement": "pIC50", "setting": "second compound 0.316 µM", "result": "> 7.50"}, {"measurement": "pIC50", "setting": "second compound 1 µM", "result": "> 7.50"}, {"measurement": "viability, T/C", "setting": "second compound 0.00316 µM, first compound 0.0316 µM", "result": 126, "unit": "%"}, {"measurement": "viability, T/C", "setting": "second compound 0.00316 µM, first compound 0.1 µM", "result": 153, "unit": "%"}, {"measurement": "viability, T/C", "setting": "second compound 0.00316 µM, first compound 0.316 µM", "result": 59.9, "unit": "%"}, {"measurement": "viability, T/C", "setting": "second compound 0.00316 µM, first compound 1 µM", "result": 62, "unit": "%"}, {"measurement": "viability, T/C", "setting": "second compound 0.00316 µM, first compound 3.16 µM", "result": 69.7, "unit": "%"}, {"measurement": "viability, T/C", "setting": "second compound 0.00316 µM, first compound 10 µM", "result": 69.3, "unit": "%"}, {"measurement": "viability, T/C", "setting": "second compound 0.01 µM, first compound 0.0316 µM", "result": 101, "unit": "%"}, {"measurement": "viability, T/C", "setting": "second compound 0.01 µM, first compound 0.1 µM", "result": 79.9, "unit": "%"}, {"measurement": "viability, T/C", "setting": "second compound 0.01 µM, first compound 0.316 µM", "result": 72, "unit": "%"}, {"measurement": "viability, T/C", "setting": "second compound 0.01 µM, first compound 1 µM", "result": 68.5, "unit": "%"}, {"measurement": "viability, T/C", "setting": "second compound 0.01 µM, first compound 3.16 µM", "result": 75.3, "unit": "%"}, {"measurement": "viability, T/C", "setting": "second compound 0.01 µM, first compound 10 µM", "result": 87.7, "unit": "%"}, {"measurement": "viability, T/C", "setting": "second compound 0.0316 µM, first compound 0.0316 µM", "result": 68.5, "unit": "%"}, {"measurement": "viability, T/C", "setting": "second compound 0.0316 µM, first compound 0.1 µM", "result": 64.1, "unit": "%"}, {"measurement": "viability, T/C", "setting": "second compound 0.0316 µM, first compound 0.316 µM", "result": 43.2, "unit": "%"}, {"measurement": "viability, T/C", "setting": "second compound 0.0316 µM, first compound 1 µM", "result": 57.1, "unit": "%"}, {"measurement": "viability, T/C", "setting": "second compound 0.0316 µM, first compound 3.16 µM", "result": 64, "unit": "%"}, {"measurement": "viability, T/C", "setting": "second compound 0.0316 µM, first compound 10 µM", "result": 72.3, "unit": "%"}, {"measurement": "viability, T/C", "setting": "second compound 0.1 µM, first compound 0.0316 µM", "result": 31, "unit": "%"}, {"measurement": "viability, T/C", "setting": "second compound 0.1 µM, first compound 0.1 µM", "result": 38, "unit": "%"}, {"measurement": "viability, T/C", "setting": "second compound 0.1 µM, first compound 0.316 µM", "result": 29.8, "unit": "%"}, {"measurement": "viability, T/C", "setting": "second compound 0.1 µM, first compound 1 µM", "result": 32.3, "unit": "%"}, {"measurement": "viability, T/C", "setting": "second compound 0.1 µM, first compound 3.16 µM", "result": 41.5, "unit": "%"}, {"measurement": "viability, T/C", "setting": "second compound 0.1 µM, first compound 10 µM", "result": 62.8, "unit": "%"}, {"measurement": "viability, T/C", "setting": "second compound 0.316 µM, first compound 0.0316 µM", "result": 26.3, "unit": "%"}, {"measurement": "viability, T/C", "setting": "second compound 0.316 µM, first compound 0.1 µM", "result": 20, "unit": "%"}, {"measurement": "viability, T/C", "setting": "second compound 0.316 µM, first compound 0.316 µM", "result": 24.6, "unit": "%"}, {"measurement": "viability, T/C", "setting": "second compound 0.316 µM, first compound 1 µM", "result": 23.8, "unit": "%"}, {"measurement": "viability, T/C", "setting": "second compound 0.316 µM, first compound 3.16 µM", "result": 21.9, "unit": "%"}, {"measurement": "viability, T/C", "setting": "second compound 0.316 µM, first compound 10 µM", "result": 16.5, "unit": "%"}, {"measurement": "viability, T/C", "setting": "second compound 1 µM, first compound 0.0316 µM", "result": 11.8, "unit": "%"}, {"measurement": "viability, T/C", "setting": "second compound 1 µM, first compound 0.1 µM", "result": 10.6, "unit": "%"}, {"measurement": "viability, T/C", "setting": "second compound 1 µM, first compound 0.316 µM", "result": 10.6, "unit": "%"}, {"measurement": "viability, T/C", "setting": "second compound 1 µM, first compound 1 µM", "result": 9.58, "unit": "%"}, {"measurement": "viability, T/C", "setting": "second compound 1 µM, first compound 3.16 µM", "result": 10, "unit": "%"}, {"measurement": "viability, T/C", "setting": "second compound 1 µM, first compound 10 µM", "result": 4.95, "unit": "%"}]}]}
